The values that follow come from BindingDB's records for doi:10.1021/jm00107a033 (Virginia Commonwealth University, 1991).

pKi: −log10 of the molar value.

As a reminder, the pKi is −log10 of the Ki, conventionally taken in molar units. A lower pKi goes with a high Ki.

The first experiment in a line: Binding affinity towards sigma opioid receptor was determined in guinea pig cerebral homogenate using [3H]haloperidol as radioligand.
In turn, `C[C@H](Cc1ccccc1)NCCc1ccccc1` [((R)-1-Methyl-2-phenyl-ethyl)-phenethyl-amine] gave a pKi of 7.21.

A short description of a further experiment: Binding affinity towards sigma receptor in guinea pig cerebral homogenate using [3H]DTG as radioligand.
In turn, `CC(Cc1ccccc1)NCCCCc1ccccc1` (stereo not drawn) had a pKi of 8.03.
The same measure, in the same setting: with `C[C@H](Cc1ccccc1)NCCOc1ccccc1` the figure was 7.35; with `C[C@@H](Cc1ccccc1)N(C)CCCCCc1ccccc1`, 8.59; with `C[C@H](Cc1ccccc1)NCCC(=O)c1ccccc1`, 7.25.
Regarding `C=CCN1CCC2(C)c3cc(O)ccc3CC1C2C` (stereo not drawn) [3-Allyl-8-hydroxy-6,11-dimethyl-1,2,3,4,5,6-hexahydro-2,6-methano-benzo[d]azocinium], the pKi is 6.37.
`C[C@@H](Cc1ccccc1)NCCCCc1ccccc1` [((S)-1-Methyl-2-phenyl-ethyl)-(4-phenyl-butyl)-amine] showed a pKi of 8.18.
The same measure, in the same setting: to `C[C@@H](Cc1ccccc1)NCCCCCc1ccccc1` [((S)-1-Methyl-2-phenyl-ethyl)-(5-phenyl-pentyl)-amine] belongs 8.20; to `C[C@@H](Cc1ccccc1)NCCc1ccccc1` [((S)-1-Methyl-2-phenyl-ethyl)-phenethyl-amine], 7.51; to `C[C@@H](N)Cc1ccccc1` [(R)-amphetamine], 4.33.
The same measure, in the same setting: to `CCN[C@H](C)Cc1ccccc1` [Adiparthrol] belongs 6.18; to `C[C@H](Cc1ccccc1)NCc1ccccc1` [N-Benzylamphetamine (Bam)], 6.93.

The nature of another experiment: Binding affinity towards sigma opioid receptor in guinea pig cerebral homogenate using [3H]DTG as radioligand.
`C[C@H](Cc1ccccc1)NCCc1ccccc1` [((R)-1-Methyl-2-phenyl-ethyl)-phenethyl-amine] showed a pKi of 7.22.
